Data published in PubChem BioAssay AID1259407 (Chemical Carcinogenesis Research Information System (CCRIS), 2018).
Activity calls are given as the source filed them. How the calls were made is not given here.

System: CCRIS mutagenicity, Ames/micronucleus/aberration tests
Test: CCRIS mutagenicity studies
[1] = Test System: AMES SALMONELLA TYPHIMURIUM, Strain/Indicator: TA98, Metabolic Activation: NONE, Method: STANDARD PLATE
[2] = Test System: AMES SALMONELLA TYPHIMURIUM, Strain/Indicator: TA98, Metabolic Activation: RAT, LIVER, S-9, AROCLOR 1254, Method: STANDARD PLATE
[3] = Test System: AMES SALMONELLA TYPHIMURIUM, Strain/Indicator: TA100, Metabolic Activation: NONE, Method: STANDARD PLATE
[4] = Test System: AMES SALMONELLA TYPHIMURIUM, Strain/Indicator: TA100, Metabolic Activation: RAT, LIVER, S-9, AROCLOR 1254, Method: STANDARD PLATE
[5] = Test System: AMES SALMONELLA TYPHIMURIUM, Strain/Indicator: TA1535, Metabolic Activation: RAT, LIVER, S-9, AROCLOR 1254, Method: STANDARD PLATE

SMILES: c1ccc2c(c1)ccc1ccccc12
- mutagenic call (Test System: AMES SALMONELLA TYPHIMURIUM, Strain/Indicator: TA97, Metabolic Activation: HAMSTER, LIVER, S-9, AROCLOR 1254 (10%), Method: PREINCUBATION): inactive; negative
- mutagenic call (Test System: AMES SALMONELLA TYPHIMURIUM, Strain/Indicator: TA97, Metabolic Activation: NONE, Method: PREINCUBATION): inactive; negative
- mutagenic call (Test System: AMES SALMONELLA TYPHIMURIUM, Strain/Indicator: TA97, Metabolic Activation: NONE, Method: STANDARD PLATE): inactive; negative
- mutagenic call (Test System: AMES SALMONELLA TYPHIMURIUM, Strain/Indicator: TA97, Metabolic Activation: RAT, LIVER, S-9, AROCLOR 1254 (10%), Method: PREINCUBATION): inactive; negative
- mutagenic call (Test System: AMES SALMONELLA TYPHIMURIUM, Strain/Indicator: TA97, Metabolic Activation: RAT, LIVER, S-9, PCB, Method: STANDARD PLATE): active; positive
- mutagenic call (Test System: AMES SALMONELLA TYPHIMURIUM, Strain/Indicator: TA98, Metabolic Activation: HAMSTER, LIVER, S-9, AROCLOR 1254 (10%), Method: PREINCUBATION): inactive; negative
- mutagenic call (Test System: AMES SALMONELLA TYPHIMURIUM, Strain/Indicator: TA98, Metabolic Activation: NONE, Method: PREINCUBATION): inactive; negative
- mutagenic call [1]: inactive; negative
- mutagenic call (Test System: AMES SALMONELLA TYPHIMURIUM, Strain/Indicator: TA98, Metabolic Activation: RAT, LIVER, S-9, AROCLOR 1254 (10%), Method: PREINCUBATION): inactive; negative
- mutagenic call [2]: inactive; negative
- mutagenic call (Test System: AMES SALMONELLA TYPHIMURIUM, Strain/Indicator: TA98, Metabolic Activation: RAT, LIVER, S-9, PCB, Method: STANDARD PLATE): inactive; negative
- mutagenic call (Test System: AMES SALMONELLA TYPHIMURIUM, Strain/Indicator: TA100, Metabolic Activation: HAMSTER, LIVER, S-9, AROCLOR 1254 (5 OR 30%), Method: PREINCUBATION): inactive; negative
- mutagenic call (Test System: AMES SALMONELLA TYPHIMURIUM, Strain/Indicator: TA100, Metabolic Activation: HAMSTER, LIVER, S-9, AROCLOR 1254 (10%), Method: PREINCUBATION): inactive; negative
- mutagenic call (Test System: AMES SALMONELLA TYPHIMURIUM, Strain/Indicator: TA100, Metabolic Activation: NONE, Method: PREINCUBATION): inactive; negative
- mutagenic call [3]: inactive; negative
- mutagenic call (Test System: AMES SALMONELLA TYPHIMURIUM, Strain/Indicator: TA100, Metabolic Activation: RAT, LIVER, S-9, AROCLOR 1254 (5%), Method: PREINCUBATION): inactive; negative
- mutagenic call (Test System: AMES SALMONELLA TYPHIMURIUM, Strain/Indicator: TA100, Metabolic Activation: RAT, LIVER, S-9, AROCLOR 1254 (10%), Method: PREINCUBATION): inactive; negative
- mutagenic call [4]: active; positive
- mutagenic call (Test System: AMES SALMONELLA TYPHIMURIUM, Strain/Indicator: TA100, Metabolic Activation: RAT, LIVER, S-9, PCB, Method: STANDARD PLATE): inactive; negative
- mutagenic call (Test System: AMES SALMONELLA TYPHIMURIUM, Strain/Indicator: TA1535, Metabolic Activation: HAMSTER, LIVER, S-9, AROCLOR 1254 (10%), Method: PREINCUBATION): inactive; negative
- mutagenic call (Test System: AMES SALMONELLA TYPHIMURIUM, Strain/Indicator: TA1535, Metabolic Activation: NONE, Method: PREINCUBATION): inactive; negative
- mutagenic call (Test System: AMES SALMONELLA TYPHIMURIUM, Strain/Indicator: TA1535, Metabolic Activation: RAT, LIVER, S-9, AROCLOR 1254 (10%), Method: PREINCUBATION): inactive; negative
- mutagenic call [5]: active; positive
- mutagenic call (Test System: E. COLI, Strain/Indicator: WP2 UVRA, Metabolic Activation: HAMSTER, LIVER, S-9, AROCLOR 1254, Method: STANDARD PLATE): inactive; negative
- mutagenic call (Test System: E. COLI, Strain/Indicator: WP2 UVRA, Metabolic Activation: HAMSTER, LIVER, S-9, Method: STANDARD PLATE): inactive; negative
- mutagenic call (Test System: E. COLI, Strain/Indicator: WP2 UVRA, Metabolic Activation: MOUSE, LIVER, S-9, AROCLOR 1254, Method: STANDARD PLATE): inactive; negative
- mutagenic call (Test System: E. COLI, Strain/Indicator: WP2 UVRA, Metabolic Activation: MOUSE, LIVER, S-9, Method: STANDARD PLATE): inactive; negative
- mutagenic call (Test System: E. COLI, Strain/Indicator: WP2 UVRA, Metabolic Activation: NONE, Method: STANDARD PLATE): inactive; negative
- mutagenic call (Test System: E. COLI, Strain/Indicator: WP2 UVRA, Metabolic Activation: RAT, LIVER, S-9, AROCLOR 1254, Method: STANDARD PLATE): inactive; negative
- mutagenic call (Test System: E. COLI, Strain/Indicator: WP2 UVRA, Metabolic Activation: RAT, LIVER, S-9, Method: STANDARD PLATE): inactive; negative
- mutagenic call (Test System: UDS RAT HEPATOCYTES, Strain/Indicator: BROMODEOXYURIDINE INCORP, Metabolic Activation: NONE, Method: FLOW CYTOMETRIC ANALYSIS): inactive; negative

SMILES: C[C@]12CC[C@@H](OC(=O)/C=C/c3cccc(N(CCCl)CCCl)c3)C[C@@H]1CC[C@@H]1[C@@H]2CC[C@]2(C)NC(=O)CC[C@@H]12
- mutagenic call [1]: inactive; negative
- mutagenic call [2]: inactive; negative
- mutagenic call [3]: inactive; negative
- mutagenic call [4]: inactive; negative
- mutagenic call (Test System: AMES SALMONELLA TYPHIMURIUM, Strain/Indicator: TA1535, Metabolic Activation: NONE, Method: STANDARD PLATE): active; positive
- mutagenic call [5]: active; positive
- mutagenic call (Test System: AMES SALMONELLA TYPHIMURIUM, Strain/Indicator: TA1537, Metabolic Activation: NONE, Method: STANDARD PLATE): inactive; negative
- mutagenic call (Test System: AMES SALMONELLA TYPHIMURIUM, Strain/Indicator: TA1537, Metabolic Activation: RAT, LIVER, S-9, AROCLOR 1254, Method: STANDARD PLATE): inactive; negative
